The nature of data set [1]: Thermal stability: heated at 80° C. for 4 hours in 50 mM Tris-HCl (pH 8.0), sweetness change level measured by the 20 subjects. In kind it is physicochemical. Particulars: primary variants. The method, then: On the basis of the results measured in Example 3-1, 100 mg of each of the brazzein variants having high sweetness, that is, brazzein(H30K) set forth in SEQ ID NO: 99, brazzein(H30R) set forth in SEQ ID NO: 100, brazzein(E35D) set forth in SEQ ID NO: 109, brazzein(E40A) set forth in SEQ ID NO: 113, brazzein(E40A) set forth in SEQ ID NO: 113, brazzein(E40D) set forth in SEQ ID NO: 114, brazzein(E40K) set forth in SEQ ID NO: 115, brazzein(E40H) set forth in SEQ ID NO: 116 and brazzein(E40R) set forth in SEQ ID NO: 117, was dissolved in a 50 mM Tris-HCl (pH 8.0) solution, and heated at 80° C. for 4 hours. Based on the sweetness measured before the heat treatment of the respective primary brazzein variants, a sweetness change level of each primary brazzein variant was then measured by the 20 subjects in the same manner as in Example 3-1.
Also, the brazzein multi-variants were measured for thermal stability in the same manner as in Example 3-2. […] From the high performance liquid chromatography analysis of the quaternary variants out of the brazzein multi-variants, it was confirmed that the quaternary variants maintained their constant thermal stability in spite of the fact that the quaternary variants had different structural properties than the minor-type brazzein protein.

Another data set relates to human sense of taste. As to the kind of experiment: Sweetness measured by human sense of taste (20 trained subjects, minimum concentration at which sweetness is first sensed). The format is in vivo. Particulars: for Minimum stimulation level in which one senses sweetness for first time / Multiples of increased sweetness to minor-type brazzein: primary brazzein variants; for Minimum stimulation level in which one senses sweetness for first time: 20 trained subjects; for Sweetness ratios of sucrose (1 g/100 ml) to primary brazzein variants (minor-type brazzein: 2000): relative to 1 g/100 ml sucrose threshold; for Multiples of increased sweetness to minor-type brazzein: relative to minor-type brazzein. The method, then:
Since the recombinant brazzein according to the present invention is not a sucrose-based compound having a cyclic ring, the sweetness of the recombinant brazzein was not measured using a saccharometer. Therefore, the activity of the recombinant brazzein was measured using the human sense of taste. Sugar content measurement was performed on 20 subjects who were trained to feel substantially the same minimum concentration of sucrose in which they could sense sweetness using a sucrose solution. That is, a concentration of each brazzein variant in which the subjects could sense sweetness for the first time was measured. Also, a sweetness ratio of the sucrose solution to the wild-type brazzein was 1 g/100 ml, which was a minimum stimulation level in which the subjects could sense sweetness. Also, a sweetness ratio of the minor-type brazzein protein to the wild-type brazzein was 500 μg/100 ml, which was a minimum stimulation level in which the subjects could sense sweetness. Therefore, the sweetness was calculated using the sweetness ratios (That is, 1/0.0005=2000 for the minor-type brazzein).
Also, the brazzein multi-variants were measured for activity (sweetness) in the same manner as in Example 3-1.

The test system of a further data set is sweetness. The following applies: cited from earlier work; for Sweetness relative to sugar (sucrose): related art.
The conditions of data set [2]: cited from earlier work; for Thermal stability: related art.

We go through 11 compounds from US8592181B2, “Brazzein variant having higher sweetness and method for preparing multi-variant” (Chung-Ang University Industry-Academy Cooperation Foundation, priority 2009, dated 2013).

Where no end group is shown, it is not given here.

As for “E40D: primary brazzein variant: Glu at position 40 of minor-type brazzein substituted with Asp (DKCKKVYENYPVSKCQLANQCNYDCKLRKHARSGECFYDDKRNLQCICDYCEY; Brazzein(E40D)) [Brazzein E40D]”, the “Thermal stability (relative activity after heat treatment)” value in data set [1] is given as “maintained their thermal stabilities”. Besides, in the data set with human sense of taste, the “Minimum stimulation level in which one senses sweetness for first time” value (“Minimum stimulation level” below) was 150 μg/100 ml and the “Sweetness ratios of sucrose (1 g/100 ml) to primary brazzein variants (minor-type brazzein: 2000)” value (shortened to “Sweetness ratios of sucrose (1 g/100 ml)”) is given as 6,600.
For “H30R: primary brazzein variant: His at position 30 of minor-type brazzein substituted with Arg (DKCKKVYENYPVSKCQLANQCNYDCKLRKRARSGECFYDEKRNLQCICDYCEY; Brazzein(H30R)) [Brazzein H30R]”, the “Thermal stability (relative activity after heat treatment)” value in data set [1] is given as “maintained their thermal stabilities”. Further, in the data set with human sense of taste, the “Multiples of increased sweetness to minor-type brazzein” value (“Multiples of increased sweetness” below) is reported as 3.3, the “Minimum stimulation level” value is given as 150 μg/100 ml and the “Sweetness ratios of sucrose (1 g/100 ml)” value is recorded as 6,600.
Turning to `C=C1C[C@@]23CC[C@H]4[C@@](C)(CCC[C@@]4(C)C(=O)O[C@@H]4O[C@H](CO)[C@@H](O)[C@H](O)[C@H]4O)[C@@H]2CC[C@]1(O[C@@H]1O[C@H](CO)[C@@H](O)[C@H](O)[C@H]1O[C@@H]1O[C@H](CO)[C@@H](O)[C@H](O)[C@H]1O)C3` [stevioside], in the data set on sweetness, the “Sweetness relative to sugar (sucrose)” value is on record as 200 times.
For the compound `O=C1NS(=O)(=O)c2ccccc21` [saccharin], in the data set with sweetness, the “Sweetness relative to sugar (sucrose)” value is “approximately 500 times”.
Turning to “minor-type brazzein: wild-type minor type of brazzein, 53 amino acid residues without pyroglutamic acid at the amino-terminal region (DKCKKVYENYPVSKCQLANQCNYDCKLRKHARSGECFYDEKRNLQCICDYCEY; ends and bridges not checked; cysteine pairing not given here) [reference compound]”, in the data set with sweetness (Assadi-Porter et al. 2000), the “Sweetness relative to the major type of brazzein” value was “approximately twice”. Besides, in the data set on human sense of taste, the “Minimum stimulation level” value is 500 μg/100 ml and the “Sweetness ratios of sucrose (1 g/100 ml)” value stood at 2000.
“Brazzein: sweetener protein extracted from the fruit of Pentadiplandra brazzeana (Baillon) (QDKCKKVYENYPVSKCQLANQCNYDCKLDKHARSGECFYDEKRNLQCICDYCEY; UniProt P56552 1-54, looked up)”: the “Solubility and pH stability in water” value in data set [2] (Gao et al. 1999) is listed as “very high”. Also, in data set [2], the Thermal stability result is “very high”.
For the compound “E40R: primary brazzein variant: Glu at position 40 of minor-type brazzein substituted with Arg (DKCKKVYENYPVSKCQLANQCNYDCKLRKHARSGECFYDRKRNLQCICDYCEY; Brazzein(E40R)) [Brazzein E40R]”, the “Thermal stability (relative activity after heat treatment)” value in data set [1] was “maintained their thermal stabilities”. Also, in the data set with human sense of taste, the “Multiples of increased sweetness” value is 2, the “Minimum stimulation level” value is recorded as 250 μg/100 ml and the “Sweetness ratios of sucrose (1 g/100 ml)” value is on record as 4,000.
For “E40A: primary brazzein variant: Glu at position 40 of minor-type brazzein substituted with Ala (DKCKKVYENYPVSKCQLANQCNYDCKLRKHARSGECFYDAKRNLQCICDYCEY; Brazzein(E40A)) [Brazzein E40A]” the same measures were “maintained their thermal stabilities”, 3.3, 150 μg/100 ml and 6,600.
For “E35D: primary brazzein variant: Glu at position 35 of minor-type brazzein substituted with Asp (DKCKKVYENYPVSKCQLANQCNYDCKLRKHARSGDCFYDEKRNLQCICDYCEY; Brazzein(E35D)) [Brazzein E35D]”, in that order: “maintained their thermal stabilities”, 3.3, 150 μg/100 ml and 6,600.
As to Monellin, the “Sweetness relative to sugar (sucrose)” value in the data set with sweetness is 3,000 times. Also, the Thermal stability entry in data set [2] is listed as “low”.
Turning to “E40K: primary brazzein variant: Glu at position 40 of minor-type brazzein substituted with Lys (DKCKKVYENYPVSKCQLANQCNYDCKLRKHARSGECFYDKKRNLQCICDYCEY; Brazzein(E40K)) [Brazzein E40K]”, in data set [1], the “Thermal stability (relative activity after heat treatment)” value is “maintained their thermal stabilities”. For the same compound, in the data set with human sense of taste, the “Multiples of increased sweetness” value worked out at 3.3, the “Minimum stimulation level” value was 150 μg/100 ml and the “Sweetness ratios of sucrose (1 g/100 ml)” value is given as 6,600.
